Reference: US20250207091A1, “METHODS AND COMPOSITIONS FOR PRODUCING PRIMORDIAL GERM CELL-LIKE CELLS” (President and Fellows of Harvard College, priority 2022, published 2025)

Legend:
VEGFR2 = VEGFR2 (Homo sapiens, UniProt P35968); settings: cited from earlier work
PDGFR = settings: cited from earlier work
c-Src = c-Src (Homo sapiens, UniProt P12931); settings: cited from earlier work
MEK = settings: cited from earlier work
PKC = settings: cited from earlier work
SW480 cells = settings: Huang et al.; cited from earlier work
[1] = test system: NANOS3-mVenus PSCs (hiPSCs); test: Primordial germ cell (hPGCLC) induction via TF overexpression in hiPSCs; type: cell-based, human; settings: for effect on NANOS3+ hPGCLC yield: doxycycline induction, monolayer, FIG. 1B
Excerpt: FIGS. 1A-1B show identification of overexpressed transcription factors (TFs) that drive enhancement of NANOS3+ primordial germ cell yield.
A method was designed for high yield germ cell formation from stem cells in monolayer culture conditions, which is described in more detail below and in FIG. 4 with a culture media composition described in Table 1. The TFs DLX5, HHEX, or FIGLA or all three together, were integrated to iPSCs via piggyBac or lentivirus and a purified pool was selected through antibiotic addition. For germ cell induction, 2,500 TF-containing iPSCs per cm^2 were seeded in mTeSR™ medium on Corning® Matrigel® Matrix for six hours. After about 12-18 hours, Media #1 was removed and the cells were again washed, and Media #2 was added. The cells were then grown for about 24 hours, after which Media #2 was replaced by Media #3. The cells were again grown for about 24 hours, after which Media #3 was replaced by Media #4. Finally, the cells were again grown for about 24 hours, at which point primordial germ cells was harvested and isolated via FACS.
Expression plasmids containing TF cDNAs under the control of a doxycycline-inducible promoter were integrated into iPSCs using PiggyBac transposase. To perform the integration, ˜50-100 fmol of TF cDNA plasmid, ˜150-250 ng PiggyBac transposase expression plasmid, and ˜100,000-200,000 iPSCs were combined in Lonza P3 buffer and electroporated using a Lonza Nucleofector 4D. After electroporation, cells were seeded in 24-well plates in mTeSR™ Plus Medium+˜8-12 μM Y-27632. Selection with the appropriate agent (typically puromycin) commenced 48 hours after electroporation and continued for ˜3-5 days. Cells were then passaged without drug selectin for ˜3 days to allow for non-integrated plasmid loss. Finally, cells were again passaged under drug selection to generate a pure, selected integrant pool. Presence and approximate copy number of integrated TF plasmids was confirmed by qPCR on genomic DNA. For oogonia, pools of hiPSCs were utilized, not single cell selected clones. Average copy number was 8-10.
hiPSCs containing integrated TF expression plasmids were cultured in mTeSR 1 medium on Matrigel. For induction in monolayer, hiPSCs are disassociated to single cells using Accutase and seeded on Matrigel or vitronectin XF coated plates at a density of 2,500-3,000 cells per cm^2 in mTeSR™ media+˜8-10 μM Y-27632 and ˜0.5-3 μg/ml doxycycline for about 6 hours. Media was then removed and washed with dPBS and replaced with aRB27 media #1 (see components list in detailed protocol). After about 12-18 hours of induction, media #1 is removed and washed with dPBS and replaced by media #2. After about 24 hours, media #2 is removed and replaced by media #3. […]

Chain of c-Src (P12931 whole entry, species assumed): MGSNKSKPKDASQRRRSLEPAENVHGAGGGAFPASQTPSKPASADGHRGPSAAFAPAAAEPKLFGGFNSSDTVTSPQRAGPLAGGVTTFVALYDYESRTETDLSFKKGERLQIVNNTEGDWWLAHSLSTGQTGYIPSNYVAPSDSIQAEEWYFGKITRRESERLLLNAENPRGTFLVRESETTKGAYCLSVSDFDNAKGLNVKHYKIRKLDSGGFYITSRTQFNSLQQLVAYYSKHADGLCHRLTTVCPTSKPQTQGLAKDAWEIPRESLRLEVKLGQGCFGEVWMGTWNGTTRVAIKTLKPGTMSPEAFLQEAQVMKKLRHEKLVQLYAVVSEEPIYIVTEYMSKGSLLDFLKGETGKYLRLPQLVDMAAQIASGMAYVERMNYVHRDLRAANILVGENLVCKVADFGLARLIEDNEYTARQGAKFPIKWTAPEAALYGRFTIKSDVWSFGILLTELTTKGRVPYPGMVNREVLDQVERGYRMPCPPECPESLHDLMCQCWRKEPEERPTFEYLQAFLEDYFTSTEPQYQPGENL
Chain of VEGFR2 (P35968 20-1356, species assumed): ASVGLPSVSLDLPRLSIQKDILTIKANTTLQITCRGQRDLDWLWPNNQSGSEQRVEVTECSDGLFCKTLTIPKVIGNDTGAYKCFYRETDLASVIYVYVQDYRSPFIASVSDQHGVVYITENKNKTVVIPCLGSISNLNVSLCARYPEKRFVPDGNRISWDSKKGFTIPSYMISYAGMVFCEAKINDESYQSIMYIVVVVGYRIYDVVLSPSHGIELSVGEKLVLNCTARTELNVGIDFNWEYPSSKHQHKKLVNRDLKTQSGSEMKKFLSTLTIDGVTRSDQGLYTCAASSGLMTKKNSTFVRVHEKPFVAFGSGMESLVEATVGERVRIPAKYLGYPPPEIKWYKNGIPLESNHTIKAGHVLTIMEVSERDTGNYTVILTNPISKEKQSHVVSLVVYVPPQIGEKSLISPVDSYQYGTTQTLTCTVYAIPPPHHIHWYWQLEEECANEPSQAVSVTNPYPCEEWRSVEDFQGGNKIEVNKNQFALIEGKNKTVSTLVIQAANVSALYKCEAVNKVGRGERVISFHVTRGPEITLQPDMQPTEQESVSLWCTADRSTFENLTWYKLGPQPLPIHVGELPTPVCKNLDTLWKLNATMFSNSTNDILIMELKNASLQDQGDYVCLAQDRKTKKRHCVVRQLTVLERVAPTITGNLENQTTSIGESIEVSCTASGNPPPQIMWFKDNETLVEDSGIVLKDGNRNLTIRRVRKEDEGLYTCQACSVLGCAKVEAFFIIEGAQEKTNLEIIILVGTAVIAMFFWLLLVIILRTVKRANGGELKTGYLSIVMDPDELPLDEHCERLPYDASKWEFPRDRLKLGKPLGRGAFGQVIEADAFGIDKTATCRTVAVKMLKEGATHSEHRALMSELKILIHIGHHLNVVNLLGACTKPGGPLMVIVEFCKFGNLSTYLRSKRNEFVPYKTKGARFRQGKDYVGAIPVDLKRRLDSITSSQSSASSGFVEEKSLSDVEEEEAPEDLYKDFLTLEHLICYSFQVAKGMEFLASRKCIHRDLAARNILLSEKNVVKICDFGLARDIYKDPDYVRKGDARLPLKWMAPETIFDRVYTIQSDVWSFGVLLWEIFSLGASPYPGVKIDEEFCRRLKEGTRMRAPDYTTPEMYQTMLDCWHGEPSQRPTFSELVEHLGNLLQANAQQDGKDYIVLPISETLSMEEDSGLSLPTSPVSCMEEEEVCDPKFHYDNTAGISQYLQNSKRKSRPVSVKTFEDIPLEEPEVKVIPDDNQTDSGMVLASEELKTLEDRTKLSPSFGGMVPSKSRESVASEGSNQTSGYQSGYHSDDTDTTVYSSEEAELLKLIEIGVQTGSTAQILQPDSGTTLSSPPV

## CCN(CC)CCCCNc1ncc2cc(-c3cc(OC)cc(OC)c3)c(NC(=O)NC(C)(C)C)nc2n1 [PD 173074]
VEGFR2
  IC50: ~0.1 µM
PDGFR
  IC50: ~17.6 µM
c-Src
  IC50: ~19.8 µM
MEK
  IC50: > 50 µM
PKC
  IC50: > 50 µM

## Oc1nc(-c2ccc(C(F)(F)F)cc2)nc2c1CSCC2 [XAV939]
SW480 cells
  effect on β-catenin: promotes the degradation of β-catenin

## DLX5: Distal-Less Homeobox 5 transcription factor (SEQ ID NO: 2), overexpressed in PSCs from a doxycycline-inducible polynucleotide
[1]; absence of BMP4
  germ cell formation rescue compared to wildtype: 50%
[1]
  effect on NANOS3+ hPGCLC yield: enhanced
[1]; without hBMP4, compared to normal condition, FIG. 3A
  activity (hPGCLC yield) retained without hBMP4: 40%

## FIGLA: Folliculogenesis Specific BHLH Transcription Factor (SEQ ID NO: 1), overexpressed in PSCs from a doxycycline-inducible polynucleotide
[1]
  effect on NANOS3+ hPGCLC yield: enhanced

B1: HHEX: Hematopoietically Expressed Homeobox transcription factor (SEQ ID NO: 3), overexpressed in PSCs from a doxycycline-inducible polynucleotide (protein)
chain: MQYPHPGPAAGAVGVPLYAPTPLLQPAHPTPFYIEDILGRGPAAPTPAPTLPSPNSSFTSLVSPYRTPVYEPTPIHPAFSHHSAAALAAAYGPGGFGGPLYPFPRTVNDYTHALLRHDPLGKPLLWSPFLQRPLHKRKGGQVRFSNDQTIELEKKFETQKYLSPPERKRLAKMLQLSERQVKTWFQNRRAKWRRLKQENPQSNKKEELESLDSSCDQRQDLPSEQNKGASLDSSQCSPSPASQEDLESEISEDSDQEVDIEGDKSYFNAG
[1]
  effect on NANOS3+ hPGCLC yield: enhanced
